# From PMC9516332 (Frontiers in Oncology, 2022)
# Like-named read-outs stand apart in the source and are kept apart here.
# Test system: 134 cancer cell lines
# Experiment: Cell viability assay (ATPlite, 72 hours), IC50 on cancer cell line panel
smiles,measurement,setting,value
CCc1nc(C(N)=O)c(Nc2ccc(N3CCC(N4CCN(C)CC4)CC3)c(OC)c2)nc1NC1CCOCC1 [gilteritinib],IC50,"HEC-6, read-out: IC50 in cell proliferation assay, HEC-6 cell line (EGFR p.A289V)",1430 nM
same,IC50,"Homo sapiens, 769-P, read-out: IC50 in cell proliferation assay, cell line 769-P",1150 nM
same,IC50,"Homo sapiens, 786-0, read-out: IC50 in cell proliferation assay, cell line 786-O",947 nM
same,IC50,"Homo sapiens, A 172, read-out: IC50 in cell proliferation assay, cell line A-172",1630 nM
same,IC50,"Homo sapiens, A204, read-out: IC50 in cell proliferation assay, cell line A-204",392 nM
same,IC50,"Homo sapiens, A498, read-out: IC50 in cell proliferation assay, cell line A-498",552 nM
same,IC50,"Homo sapiens, A549, read-out: IC50 in cell proliferation assay, cell line A-549",630 nM
same,IC50,"Homo sapiens, A704, read-out: IC50 in cell proliferation assay, cell line A-704",962 nM
same,IC50,"Homo sapiens, A-375, read-out: IC50 in cell proliferation assay, cell line A-375 (BRAF p.V600E)",400 nM
same,IC50,"Homo sapiens, A-427, read-out: IC50 in cell proliferation assay, cell line A-427",248 nM
same,IC50,"Homo sapiens, ACHN, read-out: IC50 in cell proliferation assay, cell line ACHN",294 nM
same,IC50,"Homo sapiens, AN3-CA, read-out: IC50 in cell proliferation assay, cell line AN3-CA (FGFR2 p.N549K)",1220 nM
same,IC50,"Homo sapiens, ASPC1, read-out: IC50 in cell proliferation assay, cell line AsPC-1",545 nM
same,IC50,"Homo sapiens, AU565, read-out: IC50 in cell proliferation assay, cell line AU565 (ERBB2 amplification)",1310 nM
same,IC50,"Homo sapiens, BT-20, read-out: IC50 in cell proliferation assay, cell line BT-20",4220 nM
same,IC50,"Homo sapiens, BT-474, read-out: IC50 in cell proliferation assay, cell line BT-474 (ERBB2 amplification)",13900 nM
same,IC50,"Homo sapiens, BT-549, read-out: IC50 in cell proliferation assay, cell line BT-549",469 nM
same,IC50,"Homo sapiens, BXPC-3, read-out: IC50 in cell proliferation assay, cell line BxPC-3",409 nM
same,IC50,"Homo sapiens, C-33-A, read-out: IC50 in cell proliferation assay, cell line C-33 A",344 nM
same,IC50,"Homo sapiens, CAL-27, read-out: IC50 in cell proliferation assay, cell line CAL-27",366 nM
same,IC50,"Homo sapiens, CCF-STTG1, read-out: IC50 in cell proliferation assay, cell line CCF-STTG1",4060 nM
same,IC50,"Homo sapiens, CCRF-CEM, read-out: IC50 in cell proliferation assay, cell line CCRF-CEM",1690 nM
same,IC50,"Homo sapiens, COLO 205, read-out: IC50 in cell proliferation assay, cell line COLO 205 (BRAF p.V600E)",1060 nM
same,IC50,"Homo sapiens, COLO-829, read-out: IC50 in cell proliferation assay, cell line COLO 829 (BRAF p.V600E)",1220 nM
same,IC50,"Homo sapiens, DLD-1, read-out: IC50 in cell proliferation assay, cell line DLD-1",746 nM
same,IC50,"Homo sapiens, DU-4475, read-out: IC50 in cell proliferation assay, cell line DU4475 (BRAF p.V600E)",1440 nM
same,IC50,"Homo sapiens, Daoy, read-out: IC50 in cell proliferation assay, cell line Daoy",3210 nM
same,IC50,"Homo sapiens, DoTc2-4510, read-out: IC50 in cell proliferation assay, cell line DoTc2 4510",318 nM
same,IC50,"Homo sapiens, EOL1, read-out: IC50 in cell proliferation assay, cell line EoL-1 (FIP1L1-PDGFRA)",33 nM
same,IC50,"Homo sapiens, FaDu, read-out: IC50 in cell proliferation assay, cell line FaDu",459 nM
same,IC50,"Homo sapiens, G-361, read-out: IC50 in cell proliferation assay, cell line G-361 (BRAF p.V600E)",328 nM
same,IC50,"Homo sapiens, HCC827, read-out: IC50 in cell proliferation assay, cell line HCC827 (EGFR exon19del)",223 nM
same,IC50,"Homo sapiens, HCC4006, read-out: IC50 in cell proliferation assay, cell line HCC4006 (EGFR exon19del)",540 nM
same,IC50,"Homo sapiens, HCT-15, read-out: IC50 in cell proliferation assay, cell line HCT 15",829 nM
same,IC50,"Homo sapiens, HCT-116, read-out: IC50 in cell proliferation assay, cell line HCT 116",418 nM
same,IC50,"Homo sapiens, HEC-1, read-out: IC50 in cell proliferation assay, HEC-1 cell line",462 nM
same,IC50,"Homo sapiens, HEC-1B, read-out: IC50 in cell proliferation assay, HEC-1-B cell line (EGFR p.A864V)",270 nM
same,IC50,"Homo sapiens, HL-60, read-out: IC50 in cell proliferation assay, HL-60 cell line",438 nM
same,IC50,"Homo sapiens, HT, read-out: IC50 in cell proliferation assay, HT cell line",3410 nM
same,IC50,"Homo sapiens, HT-1080, read-out: IC50 in cell proliferation assay, HT-1080 cell line",202 nM
same,IC50,"Homo sapiens, Hs746T, read-out: IC50 in cell proliferation assay, Hs 746.T cell line (MET exon14skip + amplification)",512 nM
same,IC50,"Homo sapiens, Hs-578T, read-out: IC50 in cell proliferation assay, Hs 578T cell line",1190 nM
same,IC50,"Homo sapiens, HuTu80, read-out: IC50 in cell proliferation assay, HuTu 80 cell line",509 nM
same,IC50,"Homo sapiens, J82, read-out: IC50 in cell proliferation assay, J82 cell line",372 nM
same,IC50,"Homo sapiens, Jurkat E6.1, read-out: IC50 in cell proliferation assay, Jurkat E6.1 cell line",749 nM
same,IC50,"Homo sapiens, K562, read-out: IC50 in cell proliferation assay, K-562 cell line",1540 nM
same,IC50,"Homo sapiens, KATO III, read-out: IC50 in cell proliferation assay, KATO III cell line (FGFR2 amplification)",718 nM
same,IC50,"Homo sapiens, KG-1, read-out: IC50 in cell proliferation assay, KG-1 cell line (FGFR1OP2-FGFR1)",392 nM
same,IC50,"Homo sapiens, KLE, read-out: IC50 in cell proliferation assay, KLE cell line",317 nM
same,IC50,"Homo sapiens, KMS-11, read-out: IC50 in cell proliferation assay, KMS-11 cell line (FGFR3 p.Y373C)",912 nM
same,IC50,"Homo sapiens, KU812, read-out: IC50 in cell proliferation assay, Ku812 cell line",1510 nM
same,IC50,"Homo sapiens, Kasumi 1, read-out: IC50 in cell proliferation assay, Kasumi-1 cell line (KIT p.N822K)",219 nM
same,IC50,"Homo sapiens, LC-2-ad, read-out: IC50 in cell proliferation assay, LC-2/ad cell line (CCDC6-RET)",158 nM
same,IC50,"Homo sapiens, LNCaP-Clone-FGC, read-out: IC50 in cell proliferation assay, LNCaP clone FGC cell line",6820 nM
same,IC50,"Homo sapiens, LS174T, read-out: IC50 in cell proliferation assay, LS174T cell line",652 nM
same,IC50,"Homo sapiens, LS-411N, read-out: IC50 in cell proliferation assay, LS411N cell line (BRAF p.V600E)",1150 nM
same,IC50,"Homo sapiens, LoVo, read-out: IC50 in cell proliferation assay, LoVo cell line",413 nM
same,IC50,"Homo sapiens, MCF7, read-out: IC50 in cell proliferation assay, MCF-7 cell line",514 nM
same,IC50,"Homo sapiens, MDA-MB-231, read-out: IC50 in cell proliferation assay, MDA-MB-231 cell line",1500 nM
same,IC50,"Homo sapiens, MDA-MB-453, read-out: IC50 in cell proliferation assay, MDA-MB-453 cell line",8820 nM
same,IC50,"Homo sapiens, MDA-MB-468, read-out: IC50 in cell proliferation assay, MDA-MB-468 cell line",4890 nM
same,IC50,"Homo sapiens, MG-63, read-out: IC50 in cell proliferation assay, MG-63 cell line",377 nM
same,IC50,"Homo sapiens, MIA PaCa-2, read-out: IC50 in cell proliferation assay, MIA PaCa-2 cell line",340 nM
same,IC50,"Homo sapiens, MKN-45, read-out: IC50 in cell proliferation assay, MKN45 cell line (MET amplification)",1480 nM
same,IC50,"Homo sapiens, MOLM-13, read-out: IC50 in cell proliferation assay, MOLM-13 cell line (FLT3 ITD)",4 nM
same,IC50,"Homo sapiens, MOLT-4, read-out: IC50 in cell proliferation assay, MOLT-4 cell line",1000 nM
